How the values were obtained:
[1] = far-UV CD spectra and Zn^2+ titration; type: physicochemical; conditions: water, 298 K, pH 7.4, wide minimum around 200 nm
Protocol: Figure 5 Evaluation of Zn^2+ ion binding on d-bdnf. (A,B) Deconvoluted ESI mass spectra of 10^–6 M d-bdnf solutions incubated in water 2 h, 37 °C in the presence of a 100-fold excess of Zn^2+. 0.1% of formic acid was added (A) or not (B) just before the infusion. (C) Far-UV CD spectra at pH 7.4 for titration with Zn^2+ of d-bdnf (the black curve is the spectrum of peptide; red, green, blue, cyano, and gray are spectra of peptide after the addition of increasing equivalents of metal ions. (D) Spectral changes as a function of zinc addition monitored at λ = 222 nm. [d-bdnf] = 1 × 10^–5 M. (E) Most representative conformation for the BDNF(1–12) dimer coordinating Zn(II) metal ion. Carbon atoms are shown in silver, nitrogen atoms are reported in blue, oxygen atoms in red, sulfur atoms are represented in yellow, and Zn atom is reported in orange. The secondary structure of the peptide is represented in green.
Far-UV CD spectra were obtained at 298 K under a constant flow of nitrogen by using a Jasco model 810 spectropolarimeter. […]
Potentiometric titrations were carried out on a Titrando 905 automatic, using a combined glass-Ag/AgCl electrode (Metrohm, Switzerland). […] To avoid systematic errors and verify reproducibility, the EMF values of each experiment were recorded at different time intervals. The data were analyzed by using HYPERQUAD 2003 program 17. […]

[2] = tested on: human neural progenitor cell line (RenVM); test: neuronal differentiation of Ren cells (β3-tubulin positive fraction); type: cell-based; conditions: 1 μM d-bdnf, four days; BDNF 50 ng/mL comparator
Protocol: Figure 3 Neurite outgrowth stimulated by BDNF and its mimetic peptide ligands. (A) Top, left: schematic timeline of the experiment. SH-SY5Y cells were differentiated for 5 days (d1–5) by addition of retinoic acid (RA, gray bar) in the cell medium. Then, cells were stimulated for 3 days (d6–8) with 150 ng/mL BDNF or different concentrations of its peptide-mimetics (black bar) or left untreated (white bar). On the right and bottom, representative images of the differentiated cells at the end of each treatment. Scale bar 50 μm. (B) Scatter dot plot of the total neurite length, normalized to the number of cell bodies present in each analyzed field. […] For each field, an average of 50–200 cells were counted. […] (C) Representative fluorescence images of DIV3 Ren cells stained with DAPI (blue) and β3-tubulin (green) after differentiation with the standard medium (CTRL), or with the standard medium supplemented with 50 ng/mL BDNF or with 1 μM d-bdnf. […] (D) Column plot of the mean ± SD fraction of β3-tubulin (green) positive on the total cells, counted in the DAPI channel of the analyzed fields (nfields) (CTRL: nfields = 10 and total ncells = 4756; BDNF: nfields = 11 and total ncells = 4330; d-bdnf: nfields = 10 and total ncells = 5619 cells; ****p < 0.0001, *p < 0.05 according to the one-way ANOVA with Dunnett’s multiple comparison test). […]

## HSDPARRGELSVC-C-VSLEGRRAPDSH (disulfide) [d-bdnf]
[1]
  conformation by far-UV CD: predominantly a random coil conformation
[2]
  neuronal cell fraction (β3-tubulin positive): significant increase of detected neurons with respect to untreated cells, in a similar way to BDNF

Source: paper PMC9732821, “Neurotrophic Activity and Its Modulation by Zinc Ion of a Dimeric Peptide Mimicking the Brain-Derived Neurotrophic Factor N-Terminal Region” (ACS Chemical Neuroscience, 2022)
